# Measured values from ChEMBL document CHEMBL1145739, “N-(3-phenylsulfonyl-3-piperidinoyl)-phenylalanine derivatives as potent, selective VLA-4 antagonists” (Bioorg Med Chem Lett, 2003).
# Key:
# Integrin alpha-4/beta-1 = Integrin alpha-4/beta-1 (Homo sapiens, UniProt P05556+P13612); experiment: Binding affinity towards VLA-4 (alpha4 beta-1) receptor in human Jurkat cells using [125I]VCAM-Ig as radioligand; format: cell-based
# Integrin alpha-4/beta-7 [1] = molecular target: T1, Integrin alpha-4/beta-7 (Homo sapiens, UniProt P13612+P26010); experiment: Inhibition of [125I]-VCAM-Ig binding to human integrin alpha4-beta7 receptor in RPMI-8866 cells; format: cell-based
# T1 sequence (P13612 whole entry): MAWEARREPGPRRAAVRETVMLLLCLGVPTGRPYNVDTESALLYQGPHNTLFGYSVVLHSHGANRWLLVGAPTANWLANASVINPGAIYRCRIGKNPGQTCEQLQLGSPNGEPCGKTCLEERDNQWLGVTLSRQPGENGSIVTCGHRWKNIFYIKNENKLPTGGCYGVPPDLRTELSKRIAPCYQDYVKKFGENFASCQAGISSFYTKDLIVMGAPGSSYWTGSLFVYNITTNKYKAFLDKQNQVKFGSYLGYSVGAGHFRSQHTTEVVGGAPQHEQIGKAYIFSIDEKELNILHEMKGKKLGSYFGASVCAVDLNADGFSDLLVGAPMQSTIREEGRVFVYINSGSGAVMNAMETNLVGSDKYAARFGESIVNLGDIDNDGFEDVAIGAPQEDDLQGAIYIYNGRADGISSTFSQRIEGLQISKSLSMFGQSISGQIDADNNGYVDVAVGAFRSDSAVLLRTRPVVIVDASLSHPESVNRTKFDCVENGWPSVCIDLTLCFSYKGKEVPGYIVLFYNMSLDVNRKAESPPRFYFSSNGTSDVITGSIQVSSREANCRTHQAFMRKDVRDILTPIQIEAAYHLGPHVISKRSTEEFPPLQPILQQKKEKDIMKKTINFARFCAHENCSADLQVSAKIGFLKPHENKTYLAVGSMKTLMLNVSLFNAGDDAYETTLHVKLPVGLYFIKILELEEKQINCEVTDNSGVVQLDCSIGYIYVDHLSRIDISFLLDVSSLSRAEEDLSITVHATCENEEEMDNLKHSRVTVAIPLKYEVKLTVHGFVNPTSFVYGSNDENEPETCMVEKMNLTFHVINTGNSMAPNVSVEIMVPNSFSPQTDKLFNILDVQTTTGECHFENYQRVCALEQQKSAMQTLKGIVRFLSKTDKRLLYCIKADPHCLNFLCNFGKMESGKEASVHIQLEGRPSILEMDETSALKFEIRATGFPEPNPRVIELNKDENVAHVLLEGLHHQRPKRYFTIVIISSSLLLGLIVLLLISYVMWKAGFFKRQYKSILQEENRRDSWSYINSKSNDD
# T1 sequence (P26010 whole entry): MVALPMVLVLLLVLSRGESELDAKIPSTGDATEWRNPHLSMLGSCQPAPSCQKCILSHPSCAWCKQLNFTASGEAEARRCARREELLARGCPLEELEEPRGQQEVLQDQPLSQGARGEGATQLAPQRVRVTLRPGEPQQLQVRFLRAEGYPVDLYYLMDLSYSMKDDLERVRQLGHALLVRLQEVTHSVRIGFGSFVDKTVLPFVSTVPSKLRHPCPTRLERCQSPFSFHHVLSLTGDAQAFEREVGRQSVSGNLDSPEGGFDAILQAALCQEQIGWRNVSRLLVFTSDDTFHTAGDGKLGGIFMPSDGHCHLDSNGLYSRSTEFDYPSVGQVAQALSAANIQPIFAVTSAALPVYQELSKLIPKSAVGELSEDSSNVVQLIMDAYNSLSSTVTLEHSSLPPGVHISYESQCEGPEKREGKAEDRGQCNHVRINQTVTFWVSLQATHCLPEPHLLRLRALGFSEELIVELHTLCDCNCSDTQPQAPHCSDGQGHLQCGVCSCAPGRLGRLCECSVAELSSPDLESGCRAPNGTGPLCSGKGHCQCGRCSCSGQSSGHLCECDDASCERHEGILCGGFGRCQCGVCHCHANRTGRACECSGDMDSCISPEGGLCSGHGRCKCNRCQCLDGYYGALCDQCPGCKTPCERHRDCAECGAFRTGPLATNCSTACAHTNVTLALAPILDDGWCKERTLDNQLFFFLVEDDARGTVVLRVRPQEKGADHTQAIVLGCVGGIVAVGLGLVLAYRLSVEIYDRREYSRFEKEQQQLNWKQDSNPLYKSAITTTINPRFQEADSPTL
# Integrin alpha-4/beta-7 [2] = molecular target: T1, Integrin alpha-4/beta-7; experiment: Binding affinity towards […] receptor in human RPMI-8866 B-cell line using [125I]MAdCAM-Ig as radioligand
# [3] = Half life time was evaluated at 1 mg/kg of iv administration in Sprague-Dawley rats; format: ADME, organism-based; design: dose 1 mg/kg, route intravenous; settings: rat, in vivo
# [4] = Oral bioavailability in rat (Sprague-Dawley) (dose 2 mg/kg); format: ADME, organism-based; settings: in vivo
# [5] = Plasma clearance was evaluated at 1 mg/kg of iv administration in Sprague-Dawley rats; format: ADME, organism-based; design: dose 1 mg/kg, route intravenous; settings: rat, read-out: Clp
# [6] = molecular target: T2, Integrin alpha-4/beta-7 (Homo sapiens) (UniProt P13612+P26010); experiment: Percent inhibition of [125I]MAdCAM-Ig binding to human integrin alpha4-beta7 receptor of RPMI-8866 cells at 100 nM; format: cell-based
# [7] = molecular target: T2, Integrin alpha-4/beta-7 (Homo sapiens); experiment: Percent inhibition of [125I]VCAM-Ig binding to human integrin alpha4-beta7 receptor of RPMI-8866 cells at 100 nM; format: cell-based
# Chain of Integrin alpha-4/beta-1 (P05556 whole entry, one chain of several): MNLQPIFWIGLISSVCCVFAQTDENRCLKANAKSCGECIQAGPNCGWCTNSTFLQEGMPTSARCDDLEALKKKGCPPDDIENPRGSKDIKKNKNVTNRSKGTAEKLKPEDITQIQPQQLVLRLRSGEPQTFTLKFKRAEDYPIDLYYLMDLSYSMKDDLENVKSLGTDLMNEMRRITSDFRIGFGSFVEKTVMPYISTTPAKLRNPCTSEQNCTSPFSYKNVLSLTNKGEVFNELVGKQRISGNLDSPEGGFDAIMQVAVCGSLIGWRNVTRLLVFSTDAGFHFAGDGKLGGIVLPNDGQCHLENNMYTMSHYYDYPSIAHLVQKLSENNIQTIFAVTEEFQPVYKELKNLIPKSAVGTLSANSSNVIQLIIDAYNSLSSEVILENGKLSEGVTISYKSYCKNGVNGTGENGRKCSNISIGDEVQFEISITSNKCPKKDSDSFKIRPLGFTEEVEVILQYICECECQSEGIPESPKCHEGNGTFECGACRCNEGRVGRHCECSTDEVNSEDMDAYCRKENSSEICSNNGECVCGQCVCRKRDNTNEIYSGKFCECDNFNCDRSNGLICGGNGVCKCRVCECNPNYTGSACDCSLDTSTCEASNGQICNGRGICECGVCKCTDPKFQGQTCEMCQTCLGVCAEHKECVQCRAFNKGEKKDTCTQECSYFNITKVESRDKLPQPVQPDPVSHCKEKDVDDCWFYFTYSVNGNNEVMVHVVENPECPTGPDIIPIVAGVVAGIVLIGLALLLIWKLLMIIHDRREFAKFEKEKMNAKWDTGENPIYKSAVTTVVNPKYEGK
SMILES,IC50 (Integrin alpha-4/beta-1) [nM],IC50 (Integrin alpha-4/beta-7 [1]) [nM],further results
COc1ccccc1-c1ccc(C[C@H](NC(=O)C2(S(=O)(=O)c3ccc(Cl)cc3)CCCCC2)C(=O)O)cc1,1.1,53,–
COc1ccccc1-c1ccc(C[C@H](NC(=O)C2(S(=O)(=O)c3ccccc3C)CCCCC2)C(=O)O)cc1,2.7,149,–
COc1ccccc1-c1ccc(C[C@H](NC(=O)C2(S(=O)(=O)c3cccc(C)c3)CCCCC2)C(=O)O)cc1,1,77,–
COc1ccccc1-c1ccc(C[C@H](NC(=O)C2(S(=O)(=O)C3CCCCC3)CCCC2)C(=O)O)cc1,1.1,52,–
O=C(O)[C@H](Cc1ccc(-c2ccccc2)cc1)NC(=O)C1(S(=O)(=O)c2ccccc2)CC=CC1,275,–,inhibition [6]: 7%
COc1ccccc1-c1ccc(C[C@H](NC(=O)C2(S(=O)(=O)c3ccc(C)cc3)CCCCC2)C(=O)O)cc1,1.5,91,–
COc1ccccc1-c1ccc(C[C@H](NC(=O)C2(S(=O)(=O)c3ccc(F)cc3)CCCCC2)C(=O)O)cc1,0.75,25,–
O=C(O)[C@H](Cc1ccc(-c2ccccc2)cc1)NC(=O)C1(S(=O)(=O)C2CCCCC2)CCCC1,7,–,inhibition [7]: 16%
O=C(O)[C@H](Cc1ccc(-c2ccccc2)cc1)NC(=O)C1(S(=O)(=O)c2ccc(Br)cc2)CCCC1,23,–,inhibition [7]: 20%
O=C(O)[C@H](Cc1ccc(-c2ccccc2)cc1)NC(=O)C1(S(=O)(=O)c2ccccc2Br)CCCC1,105,–,inhibition [7]: 8%
O=C(O)[C@H](Cc1ccc(-c2ccccc2)cc1)NC(=O)C1(S(=O)(=O)c2cccc3ccccc23)CCCC1,735,–,inhibition [7]: 7%
O=C(O)[C@H](Cc1ccc(-c2ccccc2)cc1)NC(=O)C1(S(=O)(=O)Cc2ccccc2)CCCC1,81,–,inhibition [7]: -7%

# These reach a lower IC50 (Integrin alpha-4/beta-1). Values come first.
IC50 (Integrin alpha-4/beta-1) [nM],IC50 (Integrin alpha-4/beta-7 [1]) [nM],SMILES,further results
0.09,–,COc1cccc(OC)c1-c1ccc(C[C@H](NC(=O)C2(S(=O)(=O)c3ccccc3)CCCNC2)C(=O)O)cc1 (stereo not given in full),IC50 (Integrin alpha-4/beta-7 [2]): 168 nM; half-life [3]: 30 min; bioavailability [4]: 1%; clearance [5]: 46 mL/min/kg
0.21,4,COc1ccccc1-c1ccc(C[C@H](NC(=O)C2(S(=O)(=O)c3nccn3C)CCCC2)C(=O)O)cc1,–
0.19,–,O=C(Nc1ccc(C[C@H](NC(=O)C2(S(=O)(=O)c3ccccc3)CCCNC2)C(=O)O)cc1)c1c(Cl)cccc1Cl (stereo not given in full),IC50 (Integrin alpha-4/beta-7 [2]): 22 nM; half-life [3]: 18 min; bioavailability [4]: 0%; clearance [5]: 78 mL/min/kg
0.22,–,O=C(Nc1ccc(C[C@H](NC(=O)C2(S(=O)(=O)c3ccccc3)CCOCC2)C(=O)O)cc1)c1c(Cl)cccc1Cl,IC50 (Integrin alpha-4/beta-7 [2]): 20 nM; half-life [3]: 36 min; bioavailability [4]: 1%; clearance [5]: 48 mL/min/kg
0.47,19,COc1ccccc1-c1ccc(C[C@H](NC(=O)C2(S(=O)(=O)C(C)(C)C)CCCC2)C(=O)O)cc1,–
0.16,–,COc1cccc(OC)c1-c1ccc(C[C@H](NC(=O)C2(S(=O)(=O)c3ccccc3)CCOCC2)C(=O)O)cc1,IC50 (Integrin alpha-4/beta-7 [2]): 38 nM; half-life [3]: 48 min; bioavailability [4]: 3%; clearance [5]: 133 mL/min/kg
0.33,83,COc1ccccc1-c1ccc(C[C@H](NC(=O)C2(S(=O)(=O)c3ccccc3)CCCC2)C(=O)O)cc1,–
